Like-named read-outs stand apart in the source and are kept apart here.
Key:
[1] = rat, in vivo, 4 weeks
[2] = test system: Salmonella-Escherichia coli; experiment: Salmonella-Escherichia coli bacterial mutation assay (Ames); details: with or without metabolic activation
[3] = (14C) ABT-263 absorption and elimination in rat; assay type: in vivo
Description: (§1) The oral bioavailability of the compound is formulation dependent, with values of 30% to 50% obtained from prototype solid dispersion and lipid-based formulations in dog. […] Elimination of total radioactivity is rapid, with 90% of the dose recovered within 24-hours post-dose.

Bcl-B = biological target: T1, Bcl-B (Homo sapiens, UniProt Q9HD36); experiment: binding affinity to anti-apoptotic Bcl-2 family proteins
T1 sequence (Q9HD36 1-204): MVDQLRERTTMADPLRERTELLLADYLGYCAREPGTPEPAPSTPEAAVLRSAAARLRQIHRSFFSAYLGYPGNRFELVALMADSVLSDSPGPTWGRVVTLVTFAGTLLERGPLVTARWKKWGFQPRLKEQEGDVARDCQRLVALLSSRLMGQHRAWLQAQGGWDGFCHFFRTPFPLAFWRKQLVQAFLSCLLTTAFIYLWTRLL

WSU-DLCL2 = experiment: flank model of diffuse large B-cell lymphoma, monotherapy; assay type: in vivo; details: 100 mg/kg/day p.o., q.d.×17 days
Description: (§2) Both of these tumors are known to express high levels of Bcl-2 due to the t(14;18) translocation. The WSU-DLCL2 line was isolated from a patient whose disease progressed following chemotherapy, radiation therapy and bone marrow transplantation and is recognized as a model of therapy-resistant lymphoma.

DoHH-2 = experiment: as above; assay type: in vivo; details: DoHH-2 flank model; 100 mg/kg/day p.o., q.d.×17 days
Description: as §2

[4] = oral bioavailability from prototype formulations in dog; assay type: in vivo; details: beagle, plasma, prototype solid dispersion and lipid-based formulations
Description: as §1

[5] = Phase 1/2a study pharmacokinetics; assay type: in vivo, human; details: for AUC: human
Protocol: There was no drug administered for the 72 hours following the first dose of the first cycle (Day-3) in order to assess the single-dose pharmacokinetics and toxicity.
Additional blood samples were collected at 0 hour (pre dose) on Day 14, Cycle 2 through Cycle 6. Sufficient blood were collected to provide approximately 1 mL plasma from each sample. A total of 27 blood samples (approximately 81 mL) were collected per subject for pharmacokinetic analysis during Cycle 1 and one additional blood sample per subject per cycle in the following cycles (up to Cycle 6).
The plasma samples were transferred using plastic pipettes into screw-capped polypropylene tubes labeled with the drug number name, type of sample (plasma), the protocol number, the subject number, the study cycle and day and the planned time of sampling relative to dosing. The plasma samples were frozen at −20° C. or colder within 1 hour after collection and will remain frozen until shipped.
Additional parameters may be calculated if useful in the interpretation of the data.
Subjects self-administered ABT-263 orally once daily (QD). Each dose were taken with approximately 240 mL of water. On days that pre-dose pharmacokinetic sampling is required (Cycle 1 Day-3, Cycle 1 Day 1, Cycle 1 Day 2, Cycle 1 Day 14, Cycle 2 Day 14, Cycle 3 Day 14, Cycle 4 Day 14, Cycle 5 Day 14 and Cycle 6 Day 14 in Phase 1 and on Cycle 1 Day 14 in Phase 2a) dosing will occur in the morning in the clinic to facilitate pharmacokinetic sampling.

[6] = in vivo rat micronucleus assay
platelets = experiment: decrease in circulating platelets in animals; assay type: in vivo, mouse, rat and dog
Description: Thrombocytopenia was seen after administration of a single dose and is present at the time of Cmax.

Bcl-w = biological target: T2, Bcl-w (Homo sapiens, UniProt Q92843); experiment: binding affinity to anti-apoptotic Bcl-2 family proteins
T2 sequence (Q92843 1-193): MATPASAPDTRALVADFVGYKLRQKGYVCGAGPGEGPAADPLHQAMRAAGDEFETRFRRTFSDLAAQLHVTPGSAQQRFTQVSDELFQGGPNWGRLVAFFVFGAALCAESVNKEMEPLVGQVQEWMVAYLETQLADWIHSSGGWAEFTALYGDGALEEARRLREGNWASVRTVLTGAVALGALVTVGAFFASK

[7] = nonclinical pharmacokinetic profile in multiple animal models; assay type: in vivo; details: all species studied
[8] = test system: cultured human peripheral blood lymphocytes; experiment: chromosomal aberration assay; assay type: cell-based; details: with or without metabolic activation
[9] = test system: human tumor cell lines derived from small cell lung carcinomas and lymphoid malignancies; experiment: mechanism-based cytotoxicity in tumor cell lines
dog toxicity studies = assay type: in vivo
Description: Target organs in the dog included lymphoid tissues (spleen, Peyer's patch, lymph nodes, and thymus (a 2-week study)), male reproductive tissues (testes and epididymides), and pancreas. The microscopic changes observed in these target organs included decreased size of follicles, cortex, and/or germinal centers in lymphoid tissue; decreased cellularity in mantle zone, germinal centers, and/or interfollicular areas of lymphoid tissue; spermatogonia, spermatocyte and/or spermatid (round and elongated) depletion; and pancreatic acinar cell single cell necrosis. With the exception of pancreatic acinar cell single cell necrosis, these microscopic changes were also noted following a 4-week dose-free recovery period.

[10] = simulation of q.d. dosing in humans (exposure and platelets)
Description: Based on preclinical evidence, potential treatment-related side effects may include drug interactions, lymphopenia, testicular effects, and thrombocytopenia. […] Under these conditions, platelet values are expected to be ′25 K/.iL at steady state.

[11] = test system: 22 cell lines consisting of multiple leukemia and lymphoma types (B-cell and T-cell malignancies); experiment: single agent activity in leukemia and lymphoma cell line panel; assay type: cell-based

SMILES: CC1(C)CCC(c2ccc(Cl)cc2)=C(CN2CCN(c3ccc(C(=O)NS(=O)(=O)c4ccc(N[C@H](CCN5CCOCC5)CSc5ccccc5)c(S(=O)(=O)C(F)(F)F)c4)cc3)CC2)C1 [ABT-263, N-(4-(4-((2-(4-chlorophenyl)-5,5-dimethyl-1-cyclohex-1-en-1-yl)methyl)piperazin-1-yl)benzoyl)-4-(((1R)-3-(morpholin-4-yl)-1-((phenylsulfanyl)methyl)propyl)amino)-3-((trifluoromethyl)sulfonyl)benzenesulfonamide]
- tolerated dose [1]: 10 mg/kg/day
- mutagenicity in the Ames assay [2]: not mutagenic
- absorption ([3]; (14C) ABT-263): slowly absorbed
- parent drug in systemic circulation ([3]; (14C) ABT-263): major component
- dose recovered (total radioactivity) ([3]; within 24-hours post-dose): 90%
- Ki (Bcl-B): ≤ 1 nM
- monotherapy activity (WSU-DLCL2): significant monotherapy activity
- monotherapy activity (DoHH-2): significant monotherapy activity
- bioavailability [4]: 30 to 50%
- no-observed-adverse-effect-level (NOAEL) (rat toxicity studies; 4-week rat toxicity study): not reached
- effect on liver enzymes (ALT, AST, alkaline phosphatase) (rat toxicity studies; rat): minimal to mild increases
- effect on lymphocytes (rat toxicity studies; rat): minimal to moderate decreases
- effect on platelets (rat toxicity studies; rat): mild to marked decreases
- effect of food on oral absorption ([5]; fasting vs non-fasting): mild positive effect
- Inter-subject variability in exposure ([5]; human subjects): ~40%
- dose proportionality of exposure ([5]; human subjects): dose-proportional
- AUC ([5]; in vivo, preclinical target, read-out: Preclinical target AUC): 53 to 88 µg·h/mL
- AUC ([5]; plasma, oral, 225 mg (n=4), read-out: Mean AUC): 47 µg·h/mL
- AUC ([5]; plasma, oral, 315 mg (n=5), read-out: Mean AUC): 100 µg·h/mL
- AUC ([5]; plasma, oral, 440 mg (n=3), read-out: Mean AUC): 109 µg·h/mL
- half-life ([5]; plasma, oral, human subjects): 14 to 20 h
- clastogenicity in rat micronucleus assay [6]: not clastogenic
- time for platelet counts to return to normal values (platelets; after a single dose): approximately one week
- duration for which platelet toxicity was tolerated (platelets; rat and dog): up to 28 days
- Ki (Bcl-w): ≤ 1 nM
- half-life ([7]; CD-1 (mouse), Sprague-Dawley (rat), beagle (dog), mouse, rat, dog, cynomolgus monkey, plasma, read-out: terminal half-lives): 4.6 to 8.4 h
- plasma clearance [7]: very low
- volumes of distribution [7]: low
- chromosome aberrations in human lymphocytes in vitro [8]: did not induce chromosome aberrations
- EC50 [9]: ≤ 1000 nM
- bleeding time (dog toxicity studies; 2-week toxicity study, dogs with low platelet counts (<50 K/μL)): prolonged bleeding time
- time to full reversal of platelet effect after treatment ended (dog toxicity studies; 4-week toxicity study in dogs): less than 7 days
- effect on lymphocytes (dog toxicity studies; dog): mild decrease
- effect on platelets (dog toxicity studies; dog): marked decrease
- NOAEL at 4 weeks (dog toxicity studies; dog, in vivo, 4 weeks of administration to dogs): 1 mg/kg/day
- expected biologically effective plasma concentration in humans [10]: 6.7 .iM
- cell lines with potent single agent activity [11]: 10 of 22

From patent publication US20090149461A1, “METHOD OF TREATING CANCER” (ABBOTT LABORATORIES, priority 2007, published 2009)
